Where only a bound is given, the exact number is not on record here.

The assay deals with T1, full-length beta-catenin (Axin site) (Homo sapiens, UniProt P35222).
T1 construct: 15 nM full-length beta-catenin, 20 nM FITC labeled peptide in buffer
T1 sequence (P35222 1-781): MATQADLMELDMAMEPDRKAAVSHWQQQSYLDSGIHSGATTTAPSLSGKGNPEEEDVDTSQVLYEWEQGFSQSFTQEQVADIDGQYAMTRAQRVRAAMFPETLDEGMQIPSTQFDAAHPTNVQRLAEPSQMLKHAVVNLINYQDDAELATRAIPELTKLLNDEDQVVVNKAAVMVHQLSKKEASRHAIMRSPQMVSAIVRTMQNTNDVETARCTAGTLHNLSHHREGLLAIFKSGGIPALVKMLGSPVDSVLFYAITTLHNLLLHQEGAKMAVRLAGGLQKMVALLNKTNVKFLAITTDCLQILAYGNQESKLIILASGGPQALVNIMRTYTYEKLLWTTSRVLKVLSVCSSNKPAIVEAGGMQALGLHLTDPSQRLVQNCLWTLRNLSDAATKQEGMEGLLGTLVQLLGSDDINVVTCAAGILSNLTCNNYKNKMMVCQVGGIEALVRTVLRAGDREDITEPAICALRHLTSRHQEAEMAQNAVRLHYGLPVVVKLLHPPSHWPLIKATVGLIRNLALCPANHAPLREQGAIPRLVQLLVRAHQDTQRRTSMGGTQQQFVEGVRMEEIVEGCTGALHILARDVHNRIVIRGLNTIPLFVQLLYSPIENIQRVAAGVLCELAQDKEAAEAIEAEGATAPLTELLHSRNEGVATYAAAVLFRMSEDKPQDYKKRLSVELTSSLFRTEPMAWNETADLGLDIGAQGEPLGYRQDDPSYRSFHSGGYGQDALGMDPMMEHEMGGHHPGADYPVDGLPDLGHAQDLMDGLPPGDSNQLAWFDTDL
As to the kind of experiment: Competition fluorescence polarization assay (Axin site probe). The following applies: competition fluorescence polarization, Table 2; read-out: in vitro FP EC50. It is filed as binding. Here is the method: FIG. 1. […] Peptide solutions were prepared in buffer (50 mM Tris pH 8.0, 250 mM NaCl, 2% glycerol, 0.5 mM EDTA, 0.02% w/v sodium azide) using a 3-fold serial dilution from 5 μM. Probe solution (15 nM full-length 13-Catenin, 20 nM FITC labeled peptide (FITC-PEG1-PQ-S5-ILD-S5-HVRRVWR (SEQ ID NO: 1) (hydrocarbon staple formed by two S5 via olefin metathesis)) in buffer) was prepared and incubated for 5 minutes, then 40 μL per well plated in a black polystyrene 384-well plate (Corning). Equal volume of the titrated peptide was added to the plate and incubated protected from light for 15 minutes prior to read. Reads were performed on a Spectramax M5 (Molecular Devices) in duplicate.
FIG. 7. […] BCL9 Competition FP assay: Peptide solutions were prepared in buffer (50 mM Tris pH 8.0, 250 mM NaCl, 2% glycerol, 0.5 mM EDTA, 0.02% w/v sodium azide) using a 3-fold serial dilution from 10 μM. Probe solution (250 nM full-length beta-catenin, 20 nM 5FAM labeled peptide in buffer) was prepared and 40 μL per well plated in a black polystyrene 384-well plate (Corning). Equal volume of the titrated peptide was added to the plate and incubated protected from light for 15 minutes prior to read. Reads were performed on a Spectramax M5 (Molecular Devices) in duplicate. Probe: Ac-[…]nLeu-Leu-2NapA-bala-bala-Lys5FAM-NH2 (SEQ ID NO: 2) (from Biochemistry, 2009, 48 (40), pp 9534-9541). Axin Competition FP assay: Peptide solutions were prepared in buffer (50 mM Tris pH 8.0, 250 mM NaCl, 2% glycerol, 0.5 mM EDTA, 0.02% w/v sodium azide) using a 3-fold serial dilution from 5 μM. Probe solution (15 nM full-length beta-catenin, 20 nM FITC labeled peptide in buffer) was prepared and incubated for 5 minutes, then 40 μL per well plated in a black polystyrene 384-well plate (Corning). Equal volume of the titrated peptide was added to the plate and incubated protected from light for 15 minutes prior to read. Reads were performed on a Spectramax M5 (Molecular Devices) in duplicate. Probe: FITC-StAx-33 from Grossmann et al. PNAS 109 17942-17947.
(In general: In fluorescence polarisation assays a small probe gives low polarisation when free and higher when bound to something large.)
One may read the EC50 as the concentration that produces a half-maximal response. With `CC[C@H](C)[C@@H]1NC(=O)[C@H](Cc2ccccn2)NC(=O)[C@H](C)NC(=O)[C@H](CC(=O)O)NC(=O)[C@H](CC(C)C)NC(=O)[C@H]([C@@H](C)CC)NC(=O)[C@](C)(NC(=O)[C@H](C)NC(C)=O)CCCCCCC=CCOC(=O)N2CC[C@@](C(=O)N[C@@H](CCC(N)=O)C(=O)N[C@H](C(=O)N[C@@H](Cc3c[nH]c4ccccc34)C(N)=O)C(C)C)(C2)NC1=O` (single isomer, unassigned) [FP0559c Isomer 2, Ac-A-R8-I-L-D-A-2pyr-I-MB-Q-V-W-NH2], the EC50 was above 5 µM.

For `CC[C@H](C)[C@@H]1NC(=O)[C@H](Cc2ccccn2)NC(=O)[C@H](C)NC(=O)[C@H](CC(=O)O)NC(=O)[C@H](CC(C)C)NC(=O)[C@H]([C@@H](C)CC)NC(=O)[C@](C)(NC(=O)[C@H](C)NC(C)=O)CCCCCCC=CCOC(=O)N2CC[C@@](C(=O)N[C@@H](CO)C(=O)N[C@H](C(=O)N[C@@H](Cc3c[nH]c4ccccc34)C(N)=O)C(C)C)(C2)NC1=O` (single isomer, unassigned) [FP0560c Isomer 1, Ac-A-R8-I-L-D-A-2pyr-I-MB-S-V-W-NH2], the EC50 was above 5 µM.

With `CC[C@H](C)[C@@H]1NC(=O)[C@H](Cc2ccccn2)NC(=O)[C@H](C)NC(=O)[C@H](CC(=O)O)NC(=O)[C@H](CC(C)C)NC(=O)[C@H]([C@@H](C)CC)NC(=O)[C@](C)(NC(=O)[C@H](C)NC(C)=O)CCCCCCC=CCOC(=O)N2CC[C@@](C(=O)N[C@@H](CO)C(=O)N[C@H](C(=O)N[C@@H](Cc3c[nH]c4ccccc34)C(N)=O)C(C)C)(C2)NC1=O` (single isomer, unassigned) [FP0560c Isomer 2, Ac-A-R8-I-L-D-A-2pyr-I-MB-S-V-W-NH2], the EC50 was above 5 µM.

For the compound `CC[C@H](C)[C@@H]1NC(=O)[C@H](Cc2ccccn2)NC(=O)[C@H](C)NC(=O)[C@H](CC(=O)O)NC(=O)[C@H](CC(C)C)NC(=O)[C@H]([C@@H](C)CC)NC(=O)[C@](C)(NC(=O)[C@H](C)NC(C)=O)CCCCCCC=CCOC(=O)N2CC[C@@](C(=O)N[C@H](C(=O)N[C@H](C(=O)N[C@@H](Cc3c[nH]c4ccccc34)C(N)=O)C(C)C)[C@@H](C)O)(C2)NC1=O` (single isomer, unassigned) [FP0561c Isomer 1, Ac-A-R8-I-L-D-A-2pyr-I-MB-T-V-W-NH2], the EC50 is above 5 µM.

As for `CC[C@H](C)[C@@H]1NC(=O)[C@H](Cc2ccccn2)NC(=O)[C@H](C)NC(=O)[C@H](CC(=O)O)NC(=O)[C@H](CC(C)C)NC(=O)[C@H]([C@@H](C)CC)NC(=O)[C@](C)(NC(=O)[C@H](C)NC(C)=O)CCCCCCC=CCOC(=O)N2CC[C@@](C(=O)N[C@H](C(=O)N[C@H](C(=O)N[C@@H](Cc3c[nH]c4ccccc34)C(N)=O)C(C)C)[C@@H](C)O)(C2)NC1=O` (single isomer, unassigned) [FP0561c Isomer 2, Ac-A-R8-I-L-D-A-2pyr-I-MB-T-V-W-NH2], the EC50 is above 5 µM.

In the case of `CC[C@H](C)[C@@H]1NC(=O)[C@H](Cc2ccccn2)NC(=O)[C@H](C)NC(=O)[C@H](CC(=O)O)NC(=O)[C@H](CC(C)C)NC(=O)[C@H]([C@@H](C)CC)NC(=O)[C@](C)(NC(=O)[C@H](C)NC(C)=O)CCCCCCC=CCOC(=O)N2CC[C@@](C(=O)N[C@H](C(=O)N[C@H](C(=O)N[C@@H](Cc3c[nH]c4ccccc34)C(N)=O)C(C)C)C(C)C)(C2)NC1=O` (single isomer, unassigned) [FP0562c Isomer 1, Ac-A-R8-I-L-D-A-2pyr-I-MB-V-V-W-NH2], the EC50 is above 5 µM.

In the case of `CC[C@H](C)[C@@H]1NC(=O)[C@H](Cc2ccccn2)NC(=O)[C@H](C)NC(=O)[C@H](CC(=O)O)NC(=O)[C@H](CC(C)C)NC(=O)[C@H]([C@@H](C)CC)NC(=O)[C@](C)(NC(=O)[C@H](C)NC(C)=O)CCCCCCC=CCOC(=O)N2CC[C@@](C(=O)N[C@H](C(=O)N[C@H](C(=O)N[C@@H](Cc3c[nH]c4ccccc34)C(N)=O)C(C)C)C(C)C)(C2)NC1=O` (single isomer, unassigned) [FP0562c Isomer 2, Ac-A-R8-I-L-D-A-2pyr-I-MB-V-V-W-NH2], the EC50 was above 5 µM.

As for `CC[C@H](C)[C@@H]1NC(=O)[C@H](Cc2ccccn2)NC(=O)[C@H](C)NC(=O)[C@H](CC(=O)O)NC(=O)[C@H](CC(C)C)NC(=O)[C@H]([C@@H](C)CC)NC(=O)[C@](C)(NC(=O)[C@H](C)NC(C)=O)CCCCCCC=CCOC(=O)N2CC[C@@](C(=O)N[C@@H](Cc3c[nH]c4ccccc34)C(=O)N[C@H](C(=O)N[C@@H](Cc3c[nH]c4ccccc34)C(N)=O)C(C)C)(C2)NC1=O` (single isomer, unassigned) [FP0563c Isomer 1, Ac-A-R8-I-L-D-A-2pyr-I-MB-W-V-W-NH2], the EC50 was above 5 µM.

For `CC[C@H](C)[C@@H]1NC(=O)[C@H](Cc2ccccn2)NC(=O)[C@H](C)NC(=O)[C@H](CC(=O)O)NC(=O)[C@H](CC(C)C)NC(=O)[C@H]([C@@H](C)CC)NC(=O)[C@](C)(NC(=O)[C@H](C)NC(C)=O)CCCCCCC=CCOC(=O)N2CC[C@@](C(=O)N[C@@H](Cc3c[nH]c4ccccc34)C(=O)N[C@H](C(=O)N[C@@H](Cc3c[nH]c4ccccc34)C(N)=O)C(C)C)(C2)NC1=O` (single isomer, unassigned) [FP0563c Isomer 2, Ac-A-R8-I-L-D-A-2pyr-I-MB-W-V-W-NH2], the EC50 was above 5 µM.

Take `CC[C@H](C)[C@@H]1NC(=O)[C@H](Cc2ccccn2)NC(=O)[C@H](C)NC(=O)[C@H](CC(=O)O)NC(=O)[C@H](CC(C)C)NC(=O)[C@H]([C@@H](C)CC)NC(=O)[C@](C)(NC(=O)[C@H](C)NC(C)=O)CCCCCCC=CCOC(=O)N2CC[C@@](C(=O)N[C@@H](Cc3ccc(O)cc3)C(=O)N[C@H](C(=O)N[C@@H](Cc3c[nH]c4ccccc34)C(N)=O)C(C)C)(C2)NC1=O` (single isomer, unassigned) [FP0564c Isomer 1, Ac-A-R8-I-L-D-A-2pyr-I-MB-Y-V-W-NH2]: the EC50 is above 5 µM.

As to `CC[C@H](C)[C@@H]1NC(=O)[C@H](Cc2ccccn2)NC(=O)[C@H](C)NC(=O)[C@H](CC(=O)O)NC(=O)[C@H](CC(C)C)NC(=O)[C@H]([C@@H](C)CC)NC(=O)[C@](C)(NC(=O)[C@H](C)NC(C)=O)CCCCCCC=CCOC(=O)N2CC[C@@](C(=O)N[C@@H](Cc3ccc(O)cc3)C(=O)N[C@H](C(=O)N[C@@H](Cc3c[nH]c4ccccc34)C(N)=O)C(C)C)(C2)NC1=O` (single isomer, unassigned) [FP0564c Isomer 2, Ac-A-R8-I-L-D-A-2pyr-I-MB-Y-V-W-NH2], the EC50 is above 5 µM.

With `CC[C@H](C)[C@@H]1NC(=O)[C@H](Cc2ccccn2)NC(=O)[C@H](C)NC(=O)[C@H](CC(=O)O)NC(=O)[C@H](CC(C)C)NC(=O)[C@H]([C@@H](C)CC)NC(=O)[C@](C)(NC(=O)[C@H](C)NC(C)=O)CCCCCCC=CCOC(=O)N2CC[C@@](C(=O)N[C@@H](CC3CCC3)C(=O)N[C@H](C(=O)N[C@@H](Cc3c[nH]c4ccccc34)C(N)=O)C(C)C)(C2)NC1=O` (single isomer, unassigned) [FP0565c Isomer 1, Ac-A-R8-I-L-D-A-2pyr-I-MB-Cba-V-W-NH2], the EC50 was above 5 µM.

Turning to `CC[C@H](C)[C@@H]1NC(=O)[C@H](Cc2ccccn2)NC(=O)[C@H](C)NC(=O)[C@H](CC(=O)O)NC(=O)[C@H](CC(C)C)NC(=O)[C@H]([C@@H](C)CC)NC(=O)[C@](C)(NC(=O)[C@H](C)NC(C)=O)CCCCCCC=CCOC(=O)N2CC[C@@](C(=O)N[C@@H](CC3CCC3)C(=O)N[C@H](C(=O)N[C@@H](Cc3c[nH]c4ccccc34)C(N)=O)C(C)C)(C2)NC1=O` (single isomer, unassigned) [FP0565c Isomer 2, Ac-A-R8-I-L-D-A-2pyr-I-MB-Cba-V-W-NH2], the 50% effective concentration (EC50) was above 5 µM.

The values are drawn from patent US11198713B2, “Agents modulating beta-catenin functions and methods thereof” (FOG PHARMACEUTICALS, INC., priority 2017, dated 2021).
